{"source": "patent US20210041443A1", "about": "“WNT6 AS GLIOBLASTOMA ONCOGENIC BIOMARKER, AND USES OF INHIBITORS THEREOF” (UNIVERSIDADE DO MINHO, priority 2018, published 2021)", "assay_in_all_cases": "Cell viability of GBM cells exposed to WNT974", "key": {"[1]": {"tested_on": "U373 cells (WNT6-positive GBM)", "format": "cell-based, human", "description": "(§1) FIG. 13. WNT6-positive GBM cell lines are more sensitive to WNT974 (an inhibitor of the WNT pathway) than a WNT6-negative GBM cell line. A. GBM cells positive to WNT6 (U373, […], and GL42) and negative to WNT6 (U87) were exposed to increasing doses of WNT974 (0, 10, 20, or 30 μM). The viability of U87 cells (WNT6-negative) was not affected by WNT inhibition, in contrast to WNT6-positive GBM cells (U373, SNB19, and GL42) that are highly-sensitive. B. Cells were exposed to increasing doses of WNT974 (0, 10, 20, or 30 μM) and to a fixed dose of TMZ (temozolomide, the gold standard chemotherapeutic drug used for GBM patients; U373: 400 μM; SNB19: 800 μM; GL42: 200 μM; U87: 800 μM)."}, "[2]": {"tested_on": "U87 cells (WNT6-negative GBM)", "format": "cell-based, human", "description": "as §1"}, "[3]": {"tested_on": "SNB19 cells (WNT6-positive GBM)", "format": "cell-based, human", "description": "as §1"}, "[4]": {"tested_on": "GL42 cells (WNT6-positive GBM)", "format": "cell-based", "description": "as §1"}}}
{"smiles": "Cc1cc(-c2ncc(CC(=O)Nc3ccc(-c4cnccn4)cn3)cc2C)ccn1", "note": "[WNT974]", "values": [{"measurement": "cell viability, sensitivity to WNT inhibition", "setting": "[1]; U373 (WNT6-positive), WNT974 0, 10, 20, or 30 μM", "result": "highly-sensitive"}, {"measurement": "cell viability, sensitivity to combinatorial therapy", "setting": "[1]; U373, WNT974 0, 10, 20, or 30 μM plus fixed dose TMZ 400 μM", "result": "higher sensitivity"}, {"measurement": "cell viability, sensitivity to WNT inhibition", "setting": "[2]; U87 (WNT6-negative), WNT974 0, 10, 20, or 30 μM", "result": "not affected"}, {"measurement": "cell viability, sensitivity to combinatorial therapy", "setting": "[2]; U87, WNT974 0, 10, 20, or 30 μM plus fixed dose TMZ 800 μM", "result": "no effect"}, {"measurement": "cell viability, sensitivity to WNT inhibition", "setting": "[3]; SNB19 (WNT6-positive), WNT974 0, 10, 20, or 30 μM", "result": "highly-sensitive"}, {"measurement": "cell viability, sensitivity to combinatorial therapy", "setting": "[3]; SNB19, WNT974 0, 10, 20, or 30 μM plus fixed dose TMZ 800 μM", "result": "higher sensitivity"}, {"measurement": "cell viability, sensitivity to WNT inhibition", "setting": "[4]; GL42 (WNT6-positive), WNT974 0, 10, 20, or 30 μM", "result": "highly-sensitive"}, {"measurement": "cell viability, sensitivity to combinatorial therapy", "setting": "[4]; GL42, WNT974 0, 10, 20, or 30 μM plus fixed dose TMZ 200 μM", "result": "higher sensitivity"}]}
